# Experimental data as given in patent US20240138406A1, “ANTIMICROBIAL PEPTIDE SCYAMPCIN44-63 AND APPLICATION THEREOF” (Xiamen University, priority 2021, published 2024).
# No end group written: not given here.
# Test system: Enterobacter cloacae QZ18103
# Settings: QZ18103, 24 h
substance,measurement,value
GKKKKRNMMKTKEPGIIFFF-NH2 [Scyampcin44-63],MBC,3 to 6 µM
